Legend:
Saccharomyces = assay: growth of winemaking yeasts on selective medium with cycloheximide; type: cell-based; details: in the concentration used by the inventors
Source text: (§1) The procedure requires no sterile laboratory conditions and only little attention is to be paid to ensure that the right sample is placed on the surface of the culture medium. The culture medium contains components easily available. In addition to components used for growth, the medium contains antibiotics inhibiting the growth of yeasts, e.g.—other culture media similar to selective Brettanomyces—cycloheximide as well. This antibiotic is used for the identification of different species in yeast diagnostics.
(§2) In the following examples, unless indicated otherwise, the following concentrations and compositions were applied. Composition of medium that was suitable for growing yeast cells was the following: 1% glucose, 0.67% “yeast nitrogen base”, 2% agar, which was made selectively by using 5 μg/ml cycloheximide as an antibiotics for blocking the growth of Saccharomyces strains. Azure-II-eosinate was used in a 30 μg/ml concentration.

[1] = test system: species causing the degradation of wine; assay: growth of wine-degrading yeasts on selective medium with cycloheximide; type: cell-based; details: in the concentration used by the inventors
Source text: as §1, §2

C[C@@H]1C[C@@H]([C@H](O)CC2CC(=O)NC(=O)C2)C(=O)[C@@H](C)C1 [cycloheximide]
growth inhibition of winemaking yeasts (Saccharomyces): prevents the growth of most yeasts playing a role in wine-making
tolerance by wine-degrading yeast species [1]: still tolerated
